SMILES	CH4 permeability [Barrer]	CO2 permeability [Barrer]	H2 permeability [Barrer]	N2 permeability [Barrer]	O2 permeability [Barrer]
*c1ccc(C(C)(C)c2ccc(N3C(=O)c4ccc(Oc5ccc(Oc6ccc7c(c6)C(=O)N(*)C7=O)cc5)cc4C3=O)cc2)cc1 (repeat unit)	0.0692	2.65	9.33	0.104	0.586
*CCC[Si](*)(C)C (repeat unit)	8.4	–	–	3	9.5
*CC(O)CO* (repeat unit)	–	0.012	0.0228	–	0.0038
*C(F)(F)C(*)(F)F (repeat unit)	10	12.7	–	–	4.9
*Oc1ccc(C2(c3ccc(OC(=O)c4cccc(C(*)=O)c4)cc3)OC(=O)c3ccccc32)cc1 (repeat unit)	0.251	7.87	17.2	0.303	1.78
*c1cc(C)c2c(c1)S(=O)(=O)c1cc(N3C(=O)c4ccc(-c5ccc6c(c5)C(=O)N(*)C6=O)cc4C3=O)cc(C)c1-2 (repeat unit)	0.195	7.73	28.2	0.499	3.29
*CC(*)[Si](C)(C)C (repeat unit)	18	190	200	11	44
*Oc1ccc(C(C)(c2ccccc2)c2ccc(OC(=O)c3cccc(C(*)=O)c3)cc2)cc1 (repeat unit)	0.59	13.1	–	0.54	2.58

Now from value to compound:

CH4 permeability [Barrer]	CO2 permeability [Barrer]	H2 permeability [Barrer]	N2 permeability [Barrer]	O2 permeability [Barrer]	SMILES
0.522	21	15.5	1.06	5.6	*Oc1ccc(S(=O)(=O)c2ccc(Oc3c(C)cc(C(C)(C)c4cc(C)c(*)c(C)c4)cc3C)cc2)cc1 (repeat unit)
–	–	13.3	0.155	0.977	*c1ccc2c(c1)nc1n2C(=O)c2ccc(C(=O)Oc3ccc(C(c4ccc(OC(=O)c5ccc6c(c5)C(=O)n5c-6nc6ccc(*)cc65)cc4)(C(F)(F)F)C(F)(F)F)cc3)cc2-1 (repeat unit)
0.244	14.1	45.4	0.37	3.29	*c1cc2c(cc1C)-c1cc(C)c(N3C(=O)c4ccc(S(=O)(=O)c5ccc6c(c5)C(=O)N(*)C6=O)cc4C3=O)cc1S2(=O)=O (repeat unit)
1.6	63.9	108	3.36	16.2	*c1ccc(C(c2ccc(N3C(=O)c4ccc(C(c5ccc6c(c5)C(=O)N(*)C6=O)(C(F)(F)F)C(F)(F)F)cc4C3=O)cc2)(C(F)(F)F)C(F)(F)F)cc1 (repeat unit)
298	5090	2280	256	913	*Oc1cc2c(cc1O*)C1(CC2(C)C)CC(C)(C)c2cc3c(cc21)Oc1c(C#N)c(*)c(*)c(C#N)c1O3 (repeat unit)
1100	2900	1600	430	810	*C(=C(*)c1cccc(O[Si](C)(C)C(C)(C)C)c1)c1ccc([Si](C)(C)C)cc1 (repeat unit)
0.08	4.73	–	0.08	0.69	*c1ccc(N(c2ccccc2)c2ccc(N3C(=O)c4ccc(C(c5ccc6c(c5)C(=O)N(*)C6=O)(C(F)(F)F)C(F)(F)F)cc4C3=O)cc2)cc1 (repeat unit)
0.84	35.6	–	1.36	6.8	*c1ccc(C2(c3ccc(*)cc3)c3ccccc3-c3ccccc32)cc1 (repeat unit)
–	0.131	–	–	0.0132	*CCOC(=O)c1ccc2cc(C(=O)O*)ccc2c1 (repeat unit)
